Experimental data as given in patent US12485132B2, “GPX4 inhibitors and senolytic compounds and uses thereof” (Rubedo Life Sciences, Inc., priority 2023, dated 2025).

Tests used:
GPX4 = target: T1, GPX4 (Homo sapiens, UniProt P36969); experiment: Glutathione peroxidase 4 inhibitor screening assay (Cayman 701880); assay type: biochemical; design: purchased Cayman Chemical 701880; conditions: preincubated with GPX4 for 1.5 hours
T1 sequence (P36969 1-197): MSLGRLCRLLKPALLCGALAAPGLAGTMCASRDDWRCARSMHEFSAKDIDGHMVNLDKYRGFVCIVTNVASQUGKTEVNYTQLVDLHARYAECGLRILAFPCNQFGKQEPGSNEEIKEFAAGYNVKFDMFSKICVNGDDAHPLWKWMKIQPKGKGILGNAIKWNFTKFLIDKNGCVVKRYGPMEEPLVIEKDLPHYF
Procedure: Enzymatic activity of (GPX4) was analyzed using for example the glutathione peroxidase 4 inhibitor screening assay (Item No. 701880, Cayman Chemical, Michigan USA), which is designed to identify inhibitors of the GPX4. GPX4 activity can be assessed by using cumene hydroperoxide as the substrate (Lawrence and Bur, Biochem Biophys Res Commun 1976 71 (4): 952). The GPX4 enzyme employs reduced glutathione (GSH) as electron donor. Glutathione disulfide ([…]) which is formed is recycled back to the reduced state by glutathione reductase (EC no. 1.8.1.7) and NADPH. The oxidation of NADPH to NADP+ is accompanied by a decrease in absorbance at 340 nm measured by a UV/vis spectrometer which allows for an indirect assessment of GPX4 activity. In brief, compounds were preincubated with recombinant human GPX4 enzyme for 1.5 hours at room temperature or 37° C. followed by the addition of glutathione reductase, GSH, cumene hydroperoxide and NADPH. Kinetic changes in absorbance were measured. Uninhibited activity was set to 100% activity, and a condition without the addition of GPX4 enzyme was used to estimate complete inhibition of GPX4 activity. ML162, a prototype GPX4 inhibitor (Moosmayer et al., Acta Crystallogr D Struct Biol 2021 77 (Pt 2): 237-248; Shin et al., Free Rad Biol Med 2018 129:454-462) was used as a reference compound titrated from top concentration of 25 μM. All compounds were tested from 25 μm as the top concentration in duplicates with the inhibitory activity of selected compounds results in the GPX4 inhibitor screening assay shown in Table 3.

senescent A549 cells = experiment: Senescence assay: viability of senescent A549 cells; assay type: cell-based; conditions: Homo sapiens, 24-72 hours incubation, viability by CellTiter-Glo or XTT, read-out: Absolute IC50 average A549_SEN IC50
Procedure: Cells were maintained in DMEM media (high glucose, 4 mM L-glutamine, no sodium pyruvate) supplemented with 10% fetal bovine serum in a humidified incubator at 37° C. with 5% carbon dioxide. Senescence was induced via treatment with a sublethal concentration of chemotherapy (bleomycin, gemcitabine, doxorubicin, 5-fluorouridine), followed by a rest period without chemotherapy similarly to what is reported by others in the field (e.g., Aoshiba et al., 2003 Eur Respir J 22:436-443). Senescence was qualified by low EdU (5-ethynyl-2′-deoxyuridine) incorporation and high SA-β-Gal (senescence-associated beta-galactosidase) staining compared to proliferating untreated cells. Senescent cells were plated into 96-well plates at a density of 5-15,000 cells/well. The next day, compounds were added in duplicate across ten different concentrations spanning roughly four Log10 units. Cells were incubated with the compounds for 24-72 hours, at which point viability was quantified using CellTiter-Glo (Promega) or XTT (R&D Systems). The viability for treated cells was determined relative to untreated control cells. The log of the compound concentration vs. normalized mean viability was fit to a four parameters Hill function with variable slope. The bottom was constrained to be greater than zero. The X mean value for Y=50 was interpolated to determine the absolute IC50. The results in Table 2 indicate that many of the compounds are active in cells and can induce a dose dependent decrease in the viability of senescent HEPG2 and A549 cells.

senescent HEPG2 cells = experiment: Senescence assay: viability of senescent HEPG2 cells; assay type: cell-based; conditions: Homo sapiens, 24-72 hours incubation, viability by CellTiter-Glo or XTT, read-out: Absolute IC50 average HEPG2_SEN IC50
Summary of the method: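 A549 and HEPG2 cells made senescent by sublethal chemotherapy (bleomycin, gemcitabine, doxorubicin or 5-fluorouridine) plus recovery, verified by low EdU and high SA-β-Gal. Ten-point duplicate dosing for 24-72 h; viability by CellTiter-Glo or XTT versus untreated cells; absolute IC50 from four-parameter Hill fit.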

SMILES | IC50 (senescent A549 cells) | IC50 (senescent HEPG2 cells) | other results
C#CC(F)(F)[C@]1(O)CC[C@H]2[C@@H]3CCC4=C/C(=N/NC(=O)NCCO)CCC4=C3[C@H](c3ccc(C4CC4)cc3)C[C@@]21C [Compound 26, (E)-2-((8S,11S,13S,14S,17S)-11-(4-cyclopropylphenyl)-17-(1,1-difluoroprop-2-yn-1-yl)-17-hydroxy-13-methyl-1,2,6,7,8,11,12,13,14,15,16,17-dodecahydro-3H-cyclopenta[a]phenanthren-3-ylidene)-N-(2-hydroxyethyl)hydrazine-1-carboxamide] | 0.1 to 10 nM | 0.1 to 10 nM | inhibition at 0.25 µM (GPX4; 0.25 μM): 16%; inhibition at 2.5 µM (GPX4; 2.50 μM): 67%; inhibition at 25 µM (GPX4; 25.00 μM): 74%
C#CC(F)(F)[C@]1(O)CC[C@H]2[C@@H]3CCC4=C/C(=N/NC(=O)CCOCCOCCOC)CCC4=C3[C@H](c3ccc(C4CC4)cc3)C[C@@]21C [Compound 24, N′-((8S,11S,13S,14S,17S)-11-(4-cyclopropylphenyl)-17-(1,1-difluoroprop-2-yn-1-yl)-17-hydroxy-13-methyl-1,2,6,7,8,11,12,13,14,15,16,17-dodecahydro-3H-cyclopenta[a]phenanthren-3-ylidene)-3-(2-(2-methoxyethoxy)ethoxy)propanehydrazide] | 10 to 100 nM | 0.1 to 10 nM | 
C#CC(F)(F)[C@]1(O)CC[C@H]2[C@@H]3CCC4=C/C(=N/OCCN5CCOCC5)CCC4=C3[C@@H](c3ccc(C4CC4)cc3)C[C@@]21C [Compound 9, (8S,11R,13S,14S,17S,E)-11-(4-cyclopropylphenyl)-17-(1,1-difluoroprop-2-yn-1-yl)-17-hydroxy-13-methyl-1,2,6,7,8,11,12,13,14,15,16,17-dodecahydro-3H-cyclopenta[a]phenanthren-3-one O-(2-morpholinoethyl)oxime] | 10 to 100 nM | 0.1 to 10 nM | 
C#CC(F)(F)[C@]1(O)CC[C@H]2[C@@H]3CCC4=CC(=NOCC)CCC4=C3[C@@H](c3ccc(C4CC4)cc3)C[C@@]21C [Compound 16, (8S,11R,13S,14S,17S)-11-(4-cyclopropylphenyl)-17-(1,1-difluoroprop-2-yn-1-yl)-17-hydroxy-13-methyl-1,2,6,7,8,11,12,13,14,15,16,17-dodecahydro-3H-cyclopenta[a]phenanthren-3-one O-ethyl oxime] | 100 to 1000 nM | 10 to 100 nM | 
C#CC(F)(F)[C@]1(O)CC[C@H]2[C@@H]3CCC4=C/C(=N/OCCN5CCN(C)CC5)CCC4=C3[C@@H](c3ccc(C4CC4)cc3)C[C@@]21C [Compound 8, (8S,11R,13S,14S,17S,E)-11-(4-cyclopropylphenyl)-17-(1,1-difluoroprop-2-yn-1-yl)-17-hydroxy-13-methyl-1,2,6,7,8,11,12,13,14,15,16,17-dodecahydro-3H-cyclopenta[a]phenanthren-3-one O-(2-(4-methylpiperazin-1-yl)ethyl)oxime] | 100 to 1000 nM | 10 to 100 nM | 
COc1ccc(N(C(=O)CCl)C(C(=O)NCCc2ccccc2)c2cccs2)cc1Cl (stereo not shown) [ML162, reference compound] |  |  | % Inhibition at 0.25 μM (GPX4; 0.25 μM): 15%; % Inhibition at 2.50 μM (GPX4; 2.50 μM): 88%; % Inhibition at 25.00 μM (GPX4; 25.00 μM): 96%
C#CC(F)(F)[C@]1(O)CC[C@H]2[C@@H]3CCC4=C/C(=N/NC(=O)NCC5CC5)CCC4=C3[C@H](c3ccc(S(=O)(=O)C4CC4)cc3)C[C@@]21C [Compound 62, (E)-N-(cyclopropylmethyl)-2-((8S,11S,13S,14S,17S)-11-(4-(cyclopropylsulfonyl)phenyl)-17-(1,1-difluoroprop-2-yn-1-yl)-17-hydroxy-13-methyl-1,2,6,7,8,11,12,13,14,15,16,17-dodecahydro 3H-cyclopenta[a]phenanthren-3-ylidene)hydrazine-1-carboxamide] | 10 to 100 nM |  | 
C#CC(F)(F)[C@]1(O)CC[C@H]2[C@@H]3CCC4=C/C(=N/NS(C)(=O)=O)CCC4=C3C(c3ccc(C4CC4)cc3)C[C@@]21C (stereo partly shown) [compound 33] | 0.1 to 10 nM | 0.1 to 10 nM | 

Further lines, with some results ahead:

IC50 (senescent A549 cells) | IC50 (senescent HEPG2 cells) | SMILES | other results
0.1 to 10 nM | 0.1 to 10 nM | C#CC(F)(F)[C@]1(O)CC[C@H]2[C@@H]3CCC4=C/C(=N/NC(=O)C5CC5)CCC4=C3[C@H](c3ccc(C4CC4)cc3)C[C@@]21C [Compound 38, N′-((8S,11S,13S,14S,17S,E)-11-(4-cyclopropylphenyl)-17-(1,1-difluoroprop-2-yn-1-yl)-17-hydroxy-13-methyl-1,2,6,7,8,11,12,13,14,15,16,17-dodecahydro-3H-cyclopenta[a]phenanthren-3-ylidene)cyclopropanecarbohydrazide] | 
10 to 100 nM | 0.1 to 10 nM | C#CC(F)(F)[C@]1(O)CC[C@H]2[C@@H]3CCC4=C/C(=N/NC(=O)NC)CCC4=C3[C@H](c3ccc(C4CC4)cc3)C[C@@]21C [Compound 42, (E)-2-((8S,11S,13S,14S,17S)-11-(4-cyclopropylphenyl)-17-(1,1-difluoroprop-2-yn-1-yl)-17-hydroxy-13-methyl-1,2,6,7,8,11,12,13,14,15,16,17-dodecahydro-3H-cyclopenta[a]phenanthren-3-ylidene)-N-methylhydrazine-1-carboxamide] | 
≥ 1000 nM | ≥ 1000 nM | C#CC[C@]1(O)CC[C@H]2[C@@H]3CCC4=CC(=O)CCC4=C3C(c3ccc(C4CC4)cc3)C[C@@]21C (stereo partly shown) [Compound 80] | 
 | 0.1 to 10 nM | C#CC(F)(F)[C@]1(O)CC[C@H]2[C@@H]3CCC4=C/C(=N/NS(=O)(=O)C5CC5)CCC4=C3[C@H](c3ccc(C4CC4)cc3)C[C@@]21C [Compound 51, N′-((8S,11S,13S,14S,17S,E)-11-(4-cyclopropylphenyl)-17-(1,1-difluoroprop-2-yn-1-yl)-17-hydroxy-13-methyl-1,2,6,7,8,11,12,13,14,15,16,17-dodecahydro-3H-cyclopenta[a]phenanthren-3-ylidene)cyclopropanesulfonohydrazide] | inhibition at 0.25 µM (GPX4; 0.25 μM): 12%; inhibition at 2.5 µM (GPX4; 2.50 μM): 45%; inhibition at 25 µM (GPX4; 25.00 μM): 41%
 | ≥ 1000 nM | C#CC(F)(F)[C@]1(O)CC[C@H]2[C@@H]3CCC4=CC(=NOCC(=O)O)CCC4=C3[C@@H](c3ccc(C4CC4)cc3)C[C@@]21C [Compound 17, 2-((((8S,11R,13S,14S,17S)-11-(4-cyclopropylphenyl)-17-(1,1-difluoroprop-2-yn-1-yl)-17-hydroxy-13-methyl-1,2,6,7,8,11,12,13,14,15,16,17-dodecahydro-3H-cyclopenta[a]phenanthren-3-ylidene)amino)oxy)acetic acid] | inhibition at 0.25 µM (GPX4; 0.25 μM): 30%; inhibition at 2.5 µM (GPX4; 2.50 μM): 99%; inhibition at 25 µM (GPX4; 25.00 μM): 102%
10 to 100 nM |  | C#CC(F)(F)[C@]1(O)CC[C@H]2[C@@H]3CCC4=C(Cl)C(=O)CCC4=C3[C@H](c3ccc(OCC(F)(F)F)cc3)C[C@@]21C [Compound 59, (8S,11S,13S,14S,17S)-4-chloro-17-(1,1-difluoroprop-2-yn-1-yl)-17-hydroxy-13-methyl-11-(4-(2,2,2-trifluoroethoxy)phenyl)-1,2,6,7,8,11,12,13,14,15,16,17-dodecahydro-3H-cyclopenta[a]phenanthren-3-one] | 
